According to US20220202739A1, “ENDOCANNABINOID MIMETIC AND ANTI-INFLAMMATORY COMPOUND CONTAINING COMPOSITIONS, METHODS OF PREPARATION AND USES THEREOF” (priority 2019, published 2022):

Key:
TLR2 = test: Gene expression custom microarray, pooled keratinocyte line (Example 3): TLR2; assay type: cell-based, human; conditions: pooled keratinocytes, 20 ppm, 24 hr
Method: (§1) Cell cultures: Received and began culture of pooled keratinocyte line from Promocell (C-12006; Lot #448Z026). Cells were seeded into a 75 cm2 flask and 2 6 well dishes for expansion and exposure per manufacturer's protocol using Keratinocyte Growth Medium (C2011B), Keratinocyte Supplement Mix (C39016) and CaCl (C34005). 2 ml of prepared solution were added to each of the 6 wells and 7 ml was added to the 75 cm2 flask.
(§2) Experimental phase: When the appropriate quantity of cells were grown, they were detached as described above, but at the final step were seeded into each well of one or more 6 well dishes. Each well received 2 ml of the cells suspended in suspension so they were seeded equally. The dishes were returned to the incubator until 85-95% confluency is reached.
(§3) It was at this stage that all wells were rinsed in PBS after aspirating the growth media. The compound(s) to be tested were previously mixed into a suitable solvent (e.g., DMSO or ethanol) that can be diluted to the desired concentration of test compound (10 μl) in the culture wells without exceeding maximum solvent concentrations and adversely effecting cell viability, and mixed with Basal Keratinocyte Media. NOTE: Standard maximum levels of solvent are 0.1% for DMSO and 0.5% for ETOH. The concentration for each tested compound/natural extract is generally listed in the left-hand column of Table 4. For certain compositions (e.g., compositions 15 and 16), other concentrations were used and are noted in the body of Table 4.
(§4) Every 2 wells on the 6 well plate served as a biological replicate for the purposes of RNA isolation and genetic expression evaluations making each 6 well dish an n=3 for the test compound contained in the media. […]
(§5) At the end of the 24 hr time period, the plates were removed from the incubator, the test media aspirated, and the cells rinsed with PBS. […] Allow 1 minute for saturation of the membrane and then centrifuge for 2 minutes to complete the RNA elution. • Quantify the quantity of RNA and store at −20 C° until use (no more than 1 month) […]

CERS3 = test: Gene expression custom microarray, pooled keratinocyte line (Example 3): CERS3; assay type: cell-based, human; conditions: pooled keratinocytes, 20 ppm, 24 hr
Method: as §1, §2, §3, §4, §5

Row | SMILES | ↑TLR2 gene expression, fold increase or decrease vs untreated cells (TLR2) | ↑CERS3 gene expression, fold increase or decrease vs untreated cells (CERS3)
1 | C=C(C)[C@@H]1CCC(C)=C[C@H]1c1c(O)cc(CCCCC)cc1O [CBD, cannabidiol, reference compound] | 2.8 fold | 1.7 fold
2 | CCCCCCCCCCCCCCCC(=O)NCCO [N-palmitoylethanolamide] | −1.3 fold | 2 fold
3 | CC(C)[C@]12O[C@H]1[C@@H]1O[C@]13[C@]1(O[C@H]1C[C@H]1C4=C(CC[C@@]13C)C(=O)OC4)[C@@H]2O [Triptolide] | −2.9 fold | −1.5 fold
